In US20130012591A1, “PROPHYLAXIS OF SKIN CANCER WITH RETINAMIDES” (Revision Therapeutics, Inc., priority 2009, published 2013):
Entries after “also recorded” stand apart in the source; their conditions may differ.

Experiments:
[1] = tested on: human that suffers from geographic atrophy (GA), secondary to age related macular degeneration (AMD); test: Rate of skin neoplasms/cancer in patients with geographic atrophy secondary to AMD (Example 1); assay type: in vivo; settings: orally 100 mg/day, placebo 9.8%
Experimental: Two patient cohorts were selected. Each member of each patient cohort was a human that suffers from geographic atrophy (GA), secondary to age related macular degeneration (AMD). The mean concentration of serum retinol binding protein in the patients at baseline was approximately 60 μg/mL. The average concentration of serum retinol binding protein in normal individuals of the same type is about 25 μg/mL to about 40 μg/mL. In the first patient population, individuals were orally administered 100 mg/day fenretinide. In the second patient population, individuals were orally administered a placebo. The placebo group developed skin neoplasms (including basal cell carcinoma, squamous cell carcinoma, and/or melanoma) at a rate of 9.8%. In the first patient population, individuals developed cancer (including basal cell carcinoma, squamous cell carcinoma, and/or melanoma) at a rate of 2.5%. […] FIG. 4 illustrates the cytotoxicity of fenretinide on the melanoma cell line (B16 (RL)). FIG. 5 illustrates the effect of fenretinide and compounds of Formula II (designated SIR-1001 and SIR-1005) on two human melanoma cell lines (M207 and SK-MEL28).

[2] = tested on: complement genes (Crry, CFH, MCP-1, CD59a, Daf2, and CD59b); test: Expression of complement genes in ocular tissue by RT-PCR; assay type: in vivo, BALB/c mice; settings: RT-PCR normalized to 18S RNA
Experimental: The effects of fenretinide on expression of complement genes was studies in […].
Fenretinide supplemented chow ([…]), or control chow, was fed to pregnant mice. Birthed litters were maintained for 4 weeks. Mice were euthanized after 4 weeks and ocular tissue was prepared for RNA extraction. Expression of complement genes was determined by RT-PCR. Data was normalized to expression of 18S RNA.
Litters of mice were separated into 2 groups just prior to weaning (4 weeks of age). Mice in Group I were fed fenretinide supplemented chow (1 g fenretinide/kg chow) for 7 weeks. Mice in Group II were fed control chow for 7 weeks. Mice were euthanized after 7 weeks and ocular tissue was prepared for RNA extraction. Expression of complement genes was determined by RT-PCR. Data was normalized to expression of 18S RNA.

Sigma 1 receptor = target: T1, Sigma 1 receptor (Cavia porcellus, UniProt Q60492); test: Sigma 1 receptor binding assay with [3H](+)-pentazocine; settings: competing ligand 10 μM; [3H](+)-pentazocine 1.0 nM or 0-10 nM; guinea pig brain membrane
T1 construct: guinea pig brain membrane aliquots were thawed, and then suspended at a concentration of 1 mg protein/ml; from tissue; host or cells: guinea pig brain membranes
Experimental: Sigma 1 receptor binding assays were performed according to DeHaven-Hudkins et al. (1992). In brief, guinea pig brain membrane aliquots were thawed, and then suspended at a concentration of 1 mg protein/ml by adding fresh sigma 1 assay buffer (50 mM Tris-HCl; pH 7.4, 25° C.). Each glass assay tube was kept at a final volume of 1.0 ml, contained 0.25 mg protein, and was incubated for 150 min at 37° C. with [3H](+)-pentazocine. [3H](+)-Pentazocine was used at either a single concentration (1.0 nM, FIG. 6) or at a range of concentrations (0-10 nM, FIG. 7). Nonspecific binding was defined by haloperidol (1.0 μM). Competing ligand concentration (e.g., fenretinide) was 10 μM. Assays were terminated by addition of ice-cold […] (5 ml) and filtration, using a cell harvester (Brandel, Gaithersburg, Md.), through glass fiber filters (GF/B) that had been pretreated with polyethyleneimine (0.5%) for 60 min. Tubes and filter discs were washed (3×3.5 ml) with ice-cold assay buffer, and the filter discs dried under vacuum. Scintillation counting was carried out after incubation of the discs with cocktail for at least 18 h.

patients with dry AMD = test: Incidence of all neoplasms and basal cell carcinoma in patients with dry AMD (Example 6); assay type: in vivo, human; settings: for Basal Cell Carcinoma, number of patients: placebo 5 of 82; for Basal Cell Carcinoma, incidence: placebo 6.1%; for All neoplasms, number of patients: placebo 14 of 82; for All neoplasms, incidence: placebo 17.1%
Experimental: Patients with dry AMD were selected. Patients are divided into three groups. Group I (n=82) received a placebo. Group II (n=80) received fenretinide at a dose of 100 mg/day. Group III (n=84) received fenretinide at a dose of 300 mg/day. Incidence of all neoplasms and basal cell carcinoma was determined for each group.

T1 sequence (Q60492 whole entry): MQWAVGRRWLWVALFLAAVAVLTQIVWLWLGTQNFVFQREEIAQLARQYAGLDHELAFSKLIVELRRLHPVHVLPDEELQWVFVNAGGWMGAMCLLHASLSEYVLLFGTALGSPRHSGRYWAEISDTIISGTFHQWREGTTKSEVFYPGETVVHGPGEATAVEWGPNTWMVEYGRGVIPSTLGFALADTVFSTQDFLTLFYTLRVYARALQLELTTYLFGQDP

binding of [3H]Pentazocine to Sigma-1 receptor in the presence of competing ligand (Sigma 1 receptor): reduced binding
SMILES: CC1=C(/C=C/C(C)=C/C=C/C(C)=C/C(=O)Nc2ccc(O)cc2)C(C)(C)CCC1 [fenretinide, N-(4-hydroxyphenyl)retinamide]
rate at which individuals developed cancer (including basal cell carcinoma, squamous cell carcinoma, and/or melanoma) [1]: 2.5% | expression of complement genes Crry, CFH, MCP-1, CD59a, CD59b, Daf2 in the eye ([2]; high dose: supplemented chow (Ig fenretinide/kg chow) fed to pregnant mice, litters maintained 4 weeks, FIG. 9): down-regulation; also recorded: down-regulates | expression of complement genes Crry, CFH, MCP-1, CD59a, CD59b, Daf2 in the eye ([2]; low dose: chow 1 g fenretinide/kg for 7 weeks from weaning, FIG. 8): up-regulation; also recorded: up-regulates | Basal Cell Carcinoma, number of patients (patients with dry AMD; 100 mg/day fenretinide, n = 80): 2 | Basal Cell Carcinoma, incidence (patients with dry AMD; 100 mg/day fenretinide, n = 80): 2.5% | All neoplasms, number of patients (patients with dry AMD; 100 mg/day fenretinide, n = 80): 4 | All neoplasms, incidence (patients with dry AMD; 100 mg/day fenretinide, n = 80): 5.0% | Basal Cell Carcinoma, number of patients (patients with dry AMD; 300 mg/day fenretinide, n = 84): 3 | Basal Cell Carcinoma, incidence (patients with dry AMD; 300 mg/day fenretinide, n = 84): 3.6% | All neoplasms, number of patients (patients with dry AMD; 300 mg/day fenretinide, n = 84): 10 | All neoplasms, incidence (patients with dry AMD; 300 mg/day fenretinide, n = 84): 11.9%
